Data as given in US20100292150A1, “Treatment of Menorrhagia with Aromatase Inhibitor” (MEDITRINA PHARMACEUTICALS, INC., priority 2007, published 2010).

Tests used:
[1] = tested on: Women with menorrhagia; assay: Safety profile of anastrozole compared to placebo in the same study; assay type: in vivo; settings: 26 days of anastrozole
Text: (§1) Women with menorrhagia were enrolled in the study and divided into two groups—one as Treatment Group and the other as Control Group. Administering of anastrozole to the women in the Treatment Group started on the second day of the menstrual cycle and lasted for 26 days. In some cases, the administration started on the third day due to site scheduling limitations. Conversely, the women in the Control Group received placebo during the same period. Data on the mean menstrual bleeding severity score were recorded on a daily basis according to the following categories of vaginal bleeding: 0=none; 1=spotting; 2=mild bleeding; 3=moderate bleeding; and 4=heavy bleeding.
The observation above was contrasted by women who received anastrozole for 26 consecutive days (Treatment Group). On Study Day 1, which corresponds to Cycle Day 2 as with the Control Group, the women were administered 20 mg of anastrozole in the clinic office and then […] for the remaining 25 days.

[2] = tested on: healthy premenopausal women; settings: 5, 10, 15 and 20 mg, single and multiple dose; 26 healthy premenopausal women; cited from earlier work
[3] = marketed in the US for long-term chronic breast cancer therapy (five years and beyond); cited from earlier work
[4] = tested on: Women with menorrhagia; assay: Daily menstrual bleeding severity score in women receiving anastrozole for 26 days vs placebo; assay type: in vivo
Text: as §1
In the Control Group, within 6 days, the average score was down to about zero. Over the next 20 days, the fluctuations in menstrual bleeding severity would also be considered typical in that some women experience “breakthrough bleeding” which was reflected in the deviation from zero that would be expected in models of normal cycles, but was not reflected in reality. This was particularly notable during the second half of the menstrual cycle.
The observation above was contrasted by women who received anastrozole for 26 consecutive days (Treatment Group). […]

Compound | safety liabilities [1] | adverse events [2] | general safety [3] | reported bleeding over the remaining days of treatment ([4]; 20 mg on Study Day 1, then 10 mg/day for remaining 25 days, contrasted with placebo) | mean bleeding severity at the start of the treatment interval ([4]; score 0=none to 4=heavy bleeding, Study Day 1 = Cycle Day 2, 20 mg anastrozole on day 1)
CC(C)(C#N)c1cc(Cn2cncn2)cc(C(C)(C)C#N)c1 [anastrozole] | does not appear to have any significant safety liabilities | no severe, serious, or otherwise significant adverse events | generally accepted as safe drugs | no bleeding or spotting reported until the very end of the cycle | ~3
C=C1C[C@@H]2[C@H](CC[C@]3(C)C(=O)CC[C@@H]23)[C@@]2(C)C=CC(=O)C=C12 [exemestane] | – | – | generally accepted as safe drugs | – | –
N#Cc1ccc(C(c2ccc(C#N)cc2)n2cncn2)cc1 [letrozole] | – | – | generally accepted as safe drugs | – | –
